Laboratory results from ChEMBL document CHEMBL2157998, “Synthesis and biological evaluation of new phenothiazine derivatives bearing a pyrazole unit as protein farnesyltransferase inhibitors” (Bioorg Med Chem Lett, 2012).
pIC50: −log10 of the molar value. Active and inactive are the calls of the source. The calls are words filed in the database; no cut-off is given here.

Tests used:
NCI-H226 = assay: Growth inhibition of human NCI-H226 cells at 10 uM after 48 hrs by single dose SRB assay; format: functional; conditions: NCI-H226, 48 h, read-out: GI
CCRF-CEM = assay: Growth inhibition of human CCRF-CEM cells at 10 uM after 48 hrs by single dose SRB assay; format: functional; conditions: read-out: GI
SW-620 = assay: Growth inhibition of human SW620 cells at 10 uM after 48 hrs by single dose SRB assay; format: functional; conditions: SW-620, 48 h, read-out: GI
OVCAR-3 = assay: Growth inhibition of human OVCAR3 cells at 10 uM after 48 hrs by single dose SRB assay; format: functional; conditions: OVCAR-3, 48 h, read-out: GI
UO-31 = assay: Growth inhibition of human UO31 cells at 10 uM after 48 hrs by single dose SRB assay; format: functional; conditions: UO-31, 48 h, read-out: GI
[1] = Growth inhibition of human […] cells at 10 uM after 48 hrs by single dose SRB assay; format: functional; conditions: read-out: GI
NCI/ADR-RES = assay: Growth inhibition of human NCI/ADR-RES cells at 10 uM after 48 hrs by single dose SRB assay; format: functional; conditions: read-out: GI
OVCAR-8 = assay: Growth inhibition of human OVCAR8 cells at 10 uM after 48 hrs by single dose SRB assay; format: functional; conditions: OVCAR-8, 48 h, read-out: GI
MOLT-4 = assay: Growth inhibition of human MOLT4 cells at 10 uM after 48 hrs by single dose SRB assay; format: functional; conditions: MOLT-4, 48 h, read-out: GI
MDA-MB-231 = assay: Growth inhibition of human MDA-MB-231 cells at 10 uM after 48 hrs by single dose SRB assay; format: functional; conditions: MDA-MB-231, 48 h, read-out: GI
RPMI-8226 = assay: Growth inhibition of human RPMI8226 cells at 10 uM after 48 hrs by single dose SRB assay; format: functional
NCI-H522 = assay: Growth inhibition of human NCI-H522 cells at 10 uM after 48 hrs by single dose SRB assay; format: functional; conditions: NCI-H522, 48 h, read-out: GI
HOP-92 = assay: Growth inhibition of human HOP92 cells at 10 uM after 48 hrs by single dose SRB assay; format: functional
A498 = assay: Growth inhibition of human A498 cells at 10 uM after 48 hrs by single dose SRB assay; format: functional; conditions: A498, 48 h, read-out: GI
UACC-62 = assay: Growth inhibition of human UACC62 cells at 10 uM after 48 hrs by single dose SRB assay; format: functional; conditions: UACC-62, 48 h, read-out: GI
MDA-MB-468 = assay: Growth inhibition of human MDA-MB-468 cells at 10 uM after 48 hrs by single dose SRB assay; format: functional; conditions: MDA-MB-468, 48 h, read-out: GI
CAKI-1 = assay: Growth inhibition of human Caki1 cells at 10 uM after 48 hrs by single dose SRB assay; format: functional; conditions: CAKI-1, 48 h, read-out: GI
SNB-19 = assay: Growth inhibition of human SNB19 cells at 10 uM after 48 hrs by single dose SRB assay; format: functional; conditions: SNB-19, 48 h, read-out: GI
U-251 = assay: Growth inhibition of human U251 cells at 10 uM after 48 hrs by single dose SRB assay; format: functional; conditions: U-251, 48 h, read-out: GI
LOX IMVI = assay: Growth inhibition of human LOXIMVI cells at 10 uM after 48 hrs by single dose SRB assay; format: functional; conditions: read-out: GI
EKVX = assay: Growth inhibition of human EKVX cells at 10 uM after 48 hrs by single dose SRB assay; format: functional; conditions: read-out: GI
[2] = target: T1, Protein farnesyltransferase (Homo sapiens, UniProt P49354+P49356); assay: Inhibition of recombinant human FTase using dansyl-GCVLS as substrate after 15 mins by fluorimetric analysis; format: protein-complex assay
HL-60(TB) = assay: Growth inhibition of human HL-60(TB) cells at 10 uM after 48 hrs by single dose SRB assay; format: functional
HT-29 = assay: Growth inhibition of human HT-29 cells at 10 uM after 48 hrs by single dose SRB assay; format: functional; conditions: HT-29, 48 h, read-out: GI
SN12C = assay: Growth inhibition of human SN12C cells at 10 uM after 48 hrs by single dose SRB assay; format: functional; conditions: read-out: GI
SF-295 = assay: Growth inhibition of human SF295 cells at 10 uM after 48 hrs by single dose SRB assay; format: functional; conditions: SF-295, 48 h, read-out: GI
HCT-15 = assay: Growth inhibition of human HCT15 cells at 10 uM after 48 hrs by single dose SRB assay; format: functional; conditions: HCT-15, 48 h, read-out: GI
ACHN = assay: Growth inhibition of human ACHN cells at 10 uM after 48 hrs by single dose SRB assay; format: functional; conditions: read-out: GI
SK-MEL-5 = assay: Growth inhibition of human SK-MEL-5 cells at 10 uM after 48 hrs by single dose SRB assay; format: functional; conditions: SK-MEL-5, 48 h, read-out: GI
[3] = target: T1, Protein farnesyltransferase; assay: Inhibition of recombinant human FTase using dansyl-GCVLS as substrate at 100 uM after 15 mins by fluorimetric analysis; format: protein-complex assay
PC-3 = assay: Growth inhibition of human PC3 cells at 10 uM after 48 hrs by single dose SRB assay; format: functional; conditions: PC-3, 48 h, read-out: GI

For `Cc1c2c(nn1CC(=O)N1c3ccccc3Sc3ccccc31)-c1ccccc1C2=O`, the inhibition of growth at 10 µM (NCI-H226) was 25.3%, the inhibition of growth at 10 µM (CCRF-CEM) was 12.1% and the inhibition of growth at 10 µM (SW-620) was 23.8%. It also gave an inhibition of growth at 10 µM (OVCAR-3) of 29.7%, an inhibition of growth at 10 µM (UO-31) of 29.5% and an inhibition of growth at 10 µM [1] of 55.7%. For the same compound, the inhibition of growth at 10 µM (NCI/ADR-RES) was 33.5%, the inhibition of growth at 10 µM (OVCAR-8) was 28.2% and the inhibition of growth at 10 µM (MOLT-4) was 25.4%. For the same compound, the inhibition of growth at 10 µM (MDA-MB-231) was 27.8%, the “growth inhibition (GI)” value (RPMI-8226) was “inactive” and the inhibition of growth at 10 µM (NCI-H522) was 9.6%. The “growth inhibition (GI)” value (HOP-92) was “inactive”, the inhibition of growth at 10 µM (A498) was 19.4% and the inhibition of growth at 10 µM (UACC-62) was 31.2%. For the same compound, the inhibition of growth at 10 µM (MDA-MB-468) was 37.6%, the inhibition of growth at 10 µM (CAKI-1) was 38.3% and the inhibition of growth at 10 µM (SNB-19) was 35.7%. The inhibition of growth at 10 µM (U-251) was 24.8%, the inhibition of growth at 10 µM (LOX IMVI) was 54.8% and the inhibition of growth at 10 µM (EKVX) was 39.9%. The pIC50 [2] was 5.47, the “growth inhibition (GI)” value (HL-60(TB)) was “inactive” and the inhibition of growth at 10 µM (HT-29) was 17.7%. For the same compound, the inhibition of growth at 10 µM (SN12C) was 34.8%, the inhibition of growth at 10 µM (SF-295) was 35.8% and the inhibition of growth at 10 µM (HCT-15) was 23%. It also gave an inhibition of growth at 10 µM (ACHN) of 29.7%, an inhibition of growth at 10 µM (SK-MEL-5) of 51.4% and an inhibition [3] of 67.7%. It also gave an inhibition of growth at 10 µM (PC-3) of 31%.
